Assay [1] addresses T1, rat A1 AR (Rattus norvegicus, UniProt P25099).
T1 construct: A1 ARs of rat brain cortical membrane; from tissue; host or cells: rat brain cortex membranes
T1 sequence (P25099 1-326): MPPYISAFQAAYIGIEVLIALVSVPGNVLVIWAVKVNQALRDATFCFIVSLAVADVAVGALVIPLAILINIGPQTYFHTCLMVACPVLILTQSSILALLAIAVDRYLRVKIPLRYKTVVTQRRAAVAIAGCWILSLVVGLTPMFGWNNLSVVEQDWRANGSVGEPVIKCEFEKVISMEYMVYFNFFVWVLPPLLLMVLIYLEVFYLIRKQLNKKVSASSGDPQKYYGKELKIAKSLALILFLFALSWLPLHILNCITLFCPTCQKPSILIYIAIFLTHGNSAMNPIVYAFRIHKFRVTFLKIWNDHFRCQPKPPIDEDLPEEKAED
Description: Radioligand binding assay at rat A1 AR (rat brain cortex) vs. [^3H]CCPA. As to conditions: rat (r); for Ki: rat brain cortex, n = 3; for inhibition at 1.5 µM: read-out: % inhibition of radioligand binding at indicated concentration, A1 vs. [^3H]CCPA, at 1,500 nM. On the procedure: (§1) Membrane preparations and radioligand binding assays at rat A1 (rat brain cortex) and rat A2A ARs (rat brain striatum) were performed as previously described (Ozola et al., [2003]; Alnouri et al., [2015]). For assays at human A1, A2A, A2B, and A3 ARs, CHO cell membranes expressing one of the human AR subtypes were used as previously reported (Klotz et al., [1998]; Alnouri et al., [2015]; De Filippo et al., [2016]).
(§2) The synthesized tetrahydropyrazino[2,1-f ]purinediones 13–20 were evaluated in radioligand binding assays for their affinity to A1 ARs of rat brain cortical membrane and to A2A ARs of rat brain striatal membrane preparations. Selected compounds were further investigated for their affinity to human A1 and A2A ARs recombinantly expressed in Chinese hamster ovary (CHO) cells. All compounds were additionally investigated for their affinity to human A2B and A3 ARs recombinantly expressed in CHO cells to determine their AR subtype selectivity. […] It is well known that all xanthine derivatives lacking a ribose moiety, including tricyclic compounds, can only block ARs, but never act as AR agonists; therefore, additional functional studies were not required. […] Potent MAO-B inhibitors were additionally investigated for inhibition of human MAO-A to assess their selectivity. Results are presented in Tables 1–6, and data of standard ligands are included for comparison.

In assay [2] the target is T2, rat A2A AR (Rattus norvegicus, UniProt P30543).
T2 construct: A2A ARs of rat brain striatal membrane preparations; from tissue; host or cells: rat brain striatum membranes
Description: Radioligand binding assay at rat A2A AR (rat brain striatum) vs. [^3H]MSX-2. Particulars: rat (r); for % inhibition of radioligand binding at indicated concentration, A2A vs. [^3H]MSX-2: at 1,000 nM; for Ki: rat brain striatum, n = 3, read-out: Ki ± SEM, A2A vs. [^3H]MSX-2. The procedure: as §1, §2

In assay [3] the target is T3, human A2B AR (Homo sapiens, UniProt P29275).
T3 construct: expressed in transfected cells; host or cells: CHO cells
T3 sequence (P29275 1-332): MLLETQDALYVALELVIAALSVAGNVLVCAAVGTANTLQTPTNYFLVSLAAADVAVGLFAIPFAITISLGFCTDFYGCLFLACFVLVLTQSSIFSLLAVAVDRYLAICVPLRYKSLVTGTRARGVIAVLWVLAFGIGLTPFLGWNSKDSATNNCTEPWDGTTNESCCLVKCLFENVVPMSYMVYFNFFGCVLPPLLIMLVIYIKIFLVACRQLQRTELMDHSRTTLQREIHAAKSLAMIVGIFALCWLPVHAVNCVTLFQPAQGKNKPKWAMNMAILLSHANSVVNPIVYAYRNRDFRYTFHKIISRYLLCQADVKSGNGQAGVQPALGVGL
As to the kind of experiment: Radioligand binding assay at human A2B AR vs. [^3H]PSB-603. Particulars: for Ki: CHO cell membranes, n = 2 (n = 3 where marked a), read-out: Ki ± SEM, A2B vs. [^3H]PSB-603; for inhibition at 1 µM: at 1,000 nM, read-out: % inhibition of radioligand binding at indicated concentration, A2B vs. [^3H]PSB-603. The procedure:
as §1, §2

Assay [4] has as its target T4, human A3 AR (Homo sapiens, UniProt P0DMS8).
T4 construct: expressed in transfected cells; host or cells: CHO cells
T4 sequence (P0DMS8 1-318): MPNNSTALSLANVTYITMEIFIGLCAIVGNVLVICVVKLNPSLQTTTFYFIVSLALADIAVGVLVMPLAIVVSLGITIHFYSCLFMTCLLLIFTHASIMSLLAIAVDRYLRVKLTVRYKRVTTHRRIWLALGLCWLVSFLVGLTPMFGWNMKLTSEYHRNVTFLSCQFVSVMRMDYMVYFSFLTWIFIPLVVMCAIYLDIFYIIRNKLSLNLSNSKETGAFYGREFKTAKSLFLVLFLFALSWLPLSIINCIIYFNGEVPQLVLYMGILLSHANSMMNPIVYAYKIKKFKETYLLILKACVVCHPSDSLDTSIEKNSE
As to the kind of experiment: Radioligand binding assay at human A3 AR vs. [^3H]PSB-11. As to conditions: for Ki: CHO cell membranes, n = 2 (n = 3 where marked a), read-out: Ki ± SEM, A3 vs. [^3H]PSB-11; for inhibition at 10 µM: at 10,000 nM, read-out: % inhibition of radioligand binding at indicated concentration, A3 vs. [^3H]PSB-11. The procedure: as §1, §2

The target of assay [5] is T5, recombinant human MAO-A (Homo sapiens, UniProt P21397).
T5 construct: purchased Sigma-Aldrich M7316; host or cells: baculovirus-infected insect cells
T5 sequence (P21397 1-527): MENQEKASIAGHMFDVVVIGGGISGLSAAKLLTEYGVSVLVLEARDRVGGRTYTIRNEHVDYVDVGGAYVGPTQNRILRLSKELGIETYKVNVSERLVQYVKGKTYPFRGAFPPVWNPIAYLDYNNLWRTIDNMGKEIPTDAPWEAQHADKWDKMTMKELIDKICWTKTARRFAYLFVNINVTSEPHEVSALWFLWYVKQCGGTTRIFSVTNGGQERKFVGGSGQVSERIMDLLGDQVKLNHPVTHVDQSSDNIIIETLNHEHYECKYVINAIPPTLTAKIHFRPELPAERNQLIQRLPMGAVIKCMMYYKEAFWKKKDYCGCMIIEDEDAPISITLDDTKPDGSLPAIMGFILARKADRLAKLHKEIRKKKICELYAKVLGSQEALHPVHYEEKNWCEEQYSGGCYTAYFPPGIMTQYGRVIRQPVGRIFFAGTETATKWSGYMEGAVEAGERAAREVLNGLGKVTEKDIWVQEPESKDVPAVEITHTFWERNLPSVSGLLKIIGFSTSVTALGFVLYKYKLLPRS
As to the kind of experiment: Monoamine oxidase assay (Amplex Red), MAO-A. Format: biochemical. Particulars: for inhibition at 10 µM: at 10,000 nM, read-out: % inhibition at indicated concentration, Human MAO-A; for IC50: n = 3, read-out: IC50 ± SEM, Human MAO-A. On the procedure: (§3) The determination of MAO-A and MAO-B inhibition was performed using commercially available recombinant human MAO-A and MAO-B enzymes expressed in baculovirus-infected insects sells (Sigma-Aldrich, M7316 and M7441) applying the commercially available Amplex® Red monoamine oxidase assay kit (Invitrogen A12214). The assays were performed as previously described. The determination of rat MAO-B inhibition was performed using mitochondrial-enriched fractions from male Sprague Dawley rat livers. […]

Assay [6] deals with T6, recombinant human MAO-B (Homo sapiens, UniProt P27338).
T6 construct: purchased Sigma-Aldrich M7441; host or cells: baculovirus-infected insect cells
T6 sequence (P27338 1-520): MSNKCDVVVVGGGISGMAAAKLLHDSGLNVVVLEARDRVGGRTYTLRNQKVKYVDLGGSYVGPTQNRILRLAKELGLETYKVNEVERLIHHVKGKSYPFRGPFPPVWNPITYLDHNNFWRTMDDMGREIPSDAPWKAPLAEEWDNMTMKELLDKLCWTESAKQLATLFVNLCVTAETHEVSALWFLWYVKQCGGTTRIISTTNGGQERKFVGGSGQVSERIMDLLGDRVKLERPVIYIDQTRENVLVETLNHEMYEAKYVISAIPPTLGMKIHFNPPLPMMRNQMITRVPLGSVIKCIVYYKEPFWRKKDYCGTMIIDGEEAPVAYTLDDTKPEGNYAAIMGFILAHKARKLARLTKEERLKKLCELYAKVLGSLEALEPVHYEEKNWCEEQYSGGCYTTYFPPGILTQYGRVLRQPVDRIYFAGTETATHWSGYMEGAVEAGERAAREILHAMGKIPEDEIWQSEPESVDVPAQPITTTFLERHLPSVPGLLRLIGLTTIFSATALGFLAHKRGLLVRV
As to the kind of experiment: Monoamine oxidase assay (Amplex Red), MAO-B. Format: biochemical. Particulars: for IC50: read-out: IC50 ± SEM, Human MAO-B; for inhibition at 10 µM: at 10,000 nM (10 μM), read-out: % inhibition at indicated concentration, Human MAO-B. The procedure: as §3

T2 sequence (P30543 whole entry): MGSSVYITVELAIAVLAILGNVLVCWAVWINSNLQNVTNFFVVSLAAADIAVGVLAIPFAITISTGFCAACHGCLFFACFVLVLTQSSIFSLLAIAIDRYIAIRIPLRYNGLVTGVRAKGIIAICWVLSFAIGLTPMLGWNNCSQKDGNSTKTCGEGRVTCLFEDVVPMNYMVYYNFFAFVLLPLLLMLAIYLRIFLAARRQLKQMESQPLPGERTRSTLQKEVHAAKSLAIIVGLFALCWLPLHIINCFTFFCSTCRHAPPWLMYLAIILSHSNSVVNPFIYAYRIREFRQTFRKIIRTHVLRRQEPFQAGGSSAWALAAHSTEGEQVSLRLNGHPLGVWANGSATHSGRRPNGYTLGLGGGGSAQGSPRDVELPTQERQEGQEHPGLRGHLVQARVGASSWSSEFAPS

Take `Cn1c(=O)[nH]c(=O)c2c1nc1n2CCN(Cc2ccccc2Br)C1` [Compound 13a, 8-(2-bromobenzyl)-1-methyl-6,7,8,9-tetrahydropyrazino[2,1-f]purine-2,4(1H,3H)-dione]: in assay [1], the Ki (as a rule, a measure of affinity in units of concentration, obtained from inhibition or displacement) was more than 1500 nM and the inhibition at 1.5 µM is 17%. Besides, in assay [2], the “% inhibition of radioligand binding at indicated concentration, A2A vs. [^3H]MSX-2” value (“% inhibition of radioligand binding” for short) is on record as -23% and the inhibition constant (Ki) is more than 1000 nM. Moreover, in assay [3], the Ki is more than 1000 nM and the inhibition at 1 µM turned out to be 1%. For the same molecule, in assay [4], the Ki was 14700 nM. Besides, in assay [5], the inhibition at 10 µM turned out to be 13% and the IC50 (usually the concentration that gives 50% inhibition) is more than 10000 nM. In addition, the IC50 in assay [6] (n = 3) turned out to be 4530 nM.
Regarding `Cn1c(=O)[nH]c(=O)c2c1nc1n2CCN(CCc2ccc(Cl)cc2Cl)C1` [Compound 13f, 8-(2,4-dichlorophenethyl)-1-methyl-6,7,8,9-tetrahydropyrazino[2,1-f]purine-2,4(1H,3H)-dione], in assay [1], the Ki is more than 1500 nM and the inhibition at 1.5 µM worked out at 5%. Further, in assay [2], the “% inhibition of radioligand binding” value is reported as 19% and the Ki is more than 1000 nM. In assay [3], the Ki was more than 1000 nM and the inhibition at 1 µM turned out to be 1%. The Ki in assay [4] was determined as 17200 nM. Besides, in assay [5], the inhibition at 10 µM worked out at 13% and the IC50 is more than 10000 nM. The IC50 in assay [6] (n = 3) came to 2880 nM.
In the case of `Cn1c(=O)[nH]c(=O)c2c1nc1n2CCN(CCc2ccc(Cl)c(Cl)c2)C1` [Compound 13g, 8-(3,4-dichlorophenethyl)-1-methyl-6,7,8,9-tetrahydropyrazino[2,1-f]purine-2,4(1H,3H)-dione], in assay [1], the Ki was more than 1500 nM and the inhibition at 1.5 µM is 3%. Further, in assay [2], the “% inhibition of radioligand binding” value is 10% and the Ki was more than 1000 nM. For the same molecule, in assay [3], the Ki was more than 1000 nM and the inhibition at 1 µM worked out at 1%. Moreover, in assay [4], the Ki is more than 10000 nM and the inhibition at 10 µM was 41%. For the same molecule, in assay [5], the inhibition at 10 µM was 12% and the IC50 was more than 10000 nM. For the same molecule, in assay [6] (n = 3), the “IC50 ± SEM, Human MAO-B” value is “submicromolar range” and the IC50 was found to be 864 ± 64 nM.
Regarding `CCn1c(=O)c2c(nc3n2CCN(Cc2ccc(F)c(C(F)(F)F)c2)C3)n(CC)c1=O` [Compound 15i, 1,3-diethyl-8-(4-fluoro-3-(trifluoromethyl)benzyl)-6,7,8,9-tetrahydropyrazino[2,1-f]purine-2,4(1H,3H)-dione], in assay [1], the Ki is more than 1500 nM and the inhibition at 1.5 µM was determined as 19%. Further, in assay [2], the “% inhibition of radioligand binding” value was 30% and the Ki was more than 1000 nM. Further, in assay [3], the Ki was more than 1000 nM and the inhibition at 1 µM turned out to be 33%. For the same molecule, in assay [4], the Ki is more than 10000 nM and the inhibition at 10 µM was 36%. In addition, in assay [5], the inhibition at 10 µM came to 8% and the IC50 was more than 10000 nM. Besides, the IC50 in assay [6] (n = 3) was found to be 3070 nM.
In the case of `C#CCn1c(=O)c2c(nc3n2CCN(c2ccc(OC)c(OC)c2)C3)n(CC)c1=O` [Compound 20d, 8-(3,4-dimethoxyphenyl)-1-ethyl-3-propargyl-6,7,8,9-tetrahydropyrazino[2,1-f]purine-2,4(1H,3H)-dione], the Ki in assay [1] is 1670 nM; in assay [2], 1580 nM; in assay [3] it was more than 1000 nM; in assay [4], 3640 nM. Moreover, in assay [3], the inhibition at 1 µM is 8%. Further, the inhibition at 10 µM in assay [6] came out at 13%. Also, in assay [6] (n = 3), the IC50 is more than 10000 nM.
In the case of `C#CCn1c(=O)c2c(nc3n2CCN(CCc2ccc(OC)cc2)C3)n(CC)c1=O` [Compound 20k, 1-ethyl-8-(4-methoxyphenethyl)-3-propargyl-6,7,8,9-tetrahydropyrazino[2,1-f]purine-2,4(1H,3H)-dione], the Ki in assay [1] was 1600 nM; in assay [2], 2700 nM; in assay [3], more than 1000 nM; in assay [4], more than 10000 nM. For the same molecule, the inhibition at 1 µM in assay [3] came to 10%. Also, the inhibition at 10 µM was found to be 22% in assay [4] and 25% in assay [6]. Further, the IC50 in assay [6] (n = 3) is more than 10000 nM.
Turning to `C#CCn1c(=O)c2c(nc3n2CCN(CCc2ccc(OC)c(OC)c2)C3)n(CC)c1=O` [Compound 20l], the Ki in assay [1] is 3800 nM; in assay [2], 7400 nM; in assay [3] it was more than 1000 nM; in assay [4], more than 10000 nM. Further, the inhibition at 1 µM in assay [3] came out at 9%. Further, the inhibition at 10 µM in assay [4] stood at 12%; in assay [6], 3%. In addition, in assay [6] (n = 3), the IC50 is more than 10000 nM.
